The record followed here is article PMC6934184, “Selective DNA-PKcs inhibition extends the therapeutic index of localized radiotherapy and chemotherapy” (The Journal of Clinical Investigation, 2019).

This experiment has as its target T1, EIF2AK2 (PKR) (Homo sapiens, UniProt P19525).
T1 construct: purchased Thermo Fisher Scientific (Life Technologies) SelectScreen
The experiment can be described thus: SelectScreen LanthaScreen. The class given is binding. The following applies: 1 µM. In outline: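 SelectScreen broad panel; activity (Z'LYTE, Adapta) plus binding formats. ATP: Km app for CSF1R Z'LYTE; 10 for CAMK1 Adapta. Readout = % per kinase.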
A general note: In TR-FRET formats the signal depends on donor and acceptor labels being close together.

T1 sequence (P19525 whole entry): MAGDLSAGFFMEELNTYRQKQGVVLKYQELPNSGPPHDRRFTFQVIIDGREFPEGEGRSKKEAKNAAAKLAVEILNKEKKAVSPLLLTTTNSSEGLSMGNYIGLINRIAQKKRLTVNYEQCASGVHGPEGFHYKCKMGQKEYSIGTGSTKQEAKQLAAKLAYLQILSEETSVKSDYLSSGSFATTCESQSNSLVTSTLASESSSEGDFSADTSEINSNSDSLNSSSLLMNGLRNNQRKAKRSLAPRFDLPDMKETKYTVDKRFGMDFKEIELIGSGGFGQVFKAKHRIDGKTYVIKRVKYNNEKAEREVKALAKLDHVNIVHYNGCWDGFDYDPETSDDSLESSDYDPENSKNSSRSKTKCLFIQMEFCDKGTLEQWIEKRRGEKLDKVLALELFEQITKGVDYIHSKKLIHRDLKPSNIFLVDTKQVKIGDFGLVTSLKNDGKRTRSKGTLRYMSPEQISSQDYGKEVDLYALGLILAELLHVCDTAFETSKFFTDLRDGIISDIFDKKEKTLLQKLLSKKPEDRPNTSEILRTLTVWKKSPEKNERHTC

As for `CN(C(=O)CN1CCOCC1)c1ccc2sc3c(-c4cccc5c(=O)cc(N6CC7CCC(C6)O7)oc45)cccc3c2c1` [NU5455], the “% displacement” value is recorded as 13.3%.
